Usually IC50 stands for the concentration that inhibits the measured activity by half.

We go through 32 compounds from patent US9771370B2, “Compounds for the inhibition of indoleamine-2,3-dioxygenase” (Merck Patent GmbH, priority 2014, dated 2017).

Chain of Recombinant human IDO (P14902 whole entry): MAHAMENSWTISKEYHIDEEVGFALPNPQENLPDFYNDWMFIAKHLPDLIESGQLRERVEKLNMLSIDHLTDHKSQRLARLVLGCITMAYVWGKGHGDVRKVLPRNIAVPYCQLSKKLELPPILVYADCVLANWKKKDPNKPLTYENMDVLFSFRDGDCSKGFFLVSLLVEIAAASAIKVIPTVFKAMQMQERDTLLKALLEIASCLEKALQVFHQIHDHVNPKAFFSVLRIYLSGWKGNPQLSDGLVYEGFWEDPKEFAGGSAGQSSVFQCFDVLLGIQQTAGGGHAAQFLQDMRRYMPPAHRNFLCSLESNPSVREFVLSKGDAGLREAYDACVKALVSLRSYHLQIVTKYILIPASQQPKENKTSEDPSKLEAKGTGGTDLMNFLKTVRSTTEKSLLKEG

For the experiment, the target named is Recombinant human IDO (Homo sapiens, UniProt P14902). As to the kind of experiment: Bridge-IT tryptophan fluorescence assay of human IDO-1 inhibition. Format: biochemical. To be noted: recombinant human IDO 7.5 nM, L-tryptophan. In a few lines:
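Two protocol variants: 100 μM L-Trp for 90 min at 37 °C, or 30 min enzyme–compound pre-incubation at 25 °C, then 50 μM L-Trp for 60 min at 25 °C. Reaction stopped in Bridge-IT solution A for 30 min at 30 °C.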
On to `Oc1cccc2c1-c1cncn1C2CCC1(F)CCCCC1` (single isomer, unassigned) [Compound 43b, 5-(2-(1-fluorocyclohexyl)ethyl)-5H-imidazo[5,1-a]isoindol-9-ol], for which the IC50 is < 100 nM.

With `COc1ccc(F)c2c1-c1cncn1C2CCC1(F)CCCCC1` (single isomer, unassigned) [Compound 45a, 6-fluoro-5-(2-(1-fluorocyclohexyl)ethyl)-9-methoxy-5H-imidazo[5,1-a]isoindole], the IC50 is > 1000 nM.

Regarding `COc1ccc(F)c2c1-c1cncn1C2CCC1(F)CCCCC1` (single isomer, unassigned) [Compound 45b, 6-fluoro-5-(2-(1-fluorocyclohexyl)ethyl)-9-methoxy-5H-imidazo[5,1-a]isoindole], the IC50 is > 1000 nM.

For the compound `CC1(C)CCC(F)(CCC2c3ncccc3-c3cncn32)CC1` (single isomer, unassigned) [Compound 48a, 7-[2-(1-fluoro-4,4-dimethylcyclohexyl)ethyl]-4,6,9-triazatricyclo[6.4.0.0^[2,6]]dodeca-1(8),2,4,9,11-pentaene], the IC50 is > 1000 nM.

In the case of `CC1(C)CCC(F)(CCC2c3ncccc3-c3cncn32)CC1` (single isomer, unassigned) [Compound 48b, 7-[2-(1-fluoro-4,4-dimethylcyclohexyl)ethyl]-4,6,9-triazatricyclo[6.4.0.0^[2,6]]dodeca-1(8),2,4,9,11-pentaene], the IC50 was > 1000 nM.

Consider `OC(CC1c2nc(Cl)ccc2-c2cncn21)C1CCC(F)(F)CC1` (single isomer, unassigned) [Compound 52a, 2-[10-chloro-4,6,9-triazatricyclo[6.4.0.0^[2,6]]dodeca-1(8),2,4,9,11-pentaen-7-yl]-1-(4,4-difluorocyclohexyl)ethan-1-ol], for which the IC50 lay in the range of 100 to 1000 nM.

Turning to `OC(CC1c2nc(Cl)ccc2-c2cncn21)C1CCC(F)(F)CC1` (single isomer, unassigned) [Compound 52c, 2-[10-chloro-4,6,9-triazatricyclo[6.4.0.0^[2,6]]dodeca-1(8),2,4,9,11-pentaen-7-yl]-1-(4,4-difluorocyclohexyl)ethan-1-ol], the IC50 is > 1000 nM.

Take `COc1ccc2c(n1)C(CC(O)C1CCC3(CC1)CC3)n1cncc1-2` (single isomer, unassigned) [Compound 53b, 2-[10-methoxy-4,6,9-triazatricyclo[6.4.0.0^[2,6]]dodeca-1(8),2,4,9,11-pentaen-7-yl]-1-[spiro[2.5]octan-6-yl]ethan-1-ol]: the IC50 is < 100 nM.

For the compound `COc1ccc2c(n1)C(CC(O)C1CCC3(CC1)CC3)n1cncc1-2` (single isomer, unassigned) [Compound 53c, 2-[10-methoxy-4,6,9-triazatricyclo[6.4.0.0^[2,6]]dodeca-1(8),2,4,9,11-pentaen-7-yl]-1-[spiro[2.5]octan-6-yl]ethan-1-ol], the concentration for half-maximal inhibition (IC50) was > 1000 nM.

Turning to `COc1ccc2c(n1)C(CCC1(F)CCC3(CC1)CC3)n1cncc1-2` (single isomer, unassigned) [Compound 54a, 7-(2-{6-fluorospiro[2.5]octan-6-yl}ethyl)-10-methoxy-4,6,9-triazatricyclo[6.4.0.0^[2,6]]dodeca-1(8),2,4,9,11-pentaene], the half-inhibitory concentration (IC50) was < 100 nM.

In the case of `COc1ccc2c(n1)C(CCC1(F)CCC3(CC1)CC3)n1cncc1-2` (single isomer, unassigned) [Compound 54b, 7-(2-{6-fluorospiro[2.5]octan-6-yl}ethyl)-10-methoxy-4,6,9-triazatricyclo[6.4.0.0^[2,6]]dodeca-1(8),2,4,9,11-pentaene], the 50% inhibitory concentration (IC50) was > 1000 nM.

Take `OC(CC1c2nc(Cl)ccc2-c2cncn21)C1CCCCC1` (single isomer, unassigned) [Compound 55a, 2-[10-chloro-4,6,9-triazatricyclo[6.4.0.0^[2,6]]dodeca-1(8),2,4,9,11-pentaen-7-yl]-1-cyclohexylethan-1-ol]: the IC50 was 100 to 1000 nM.

Turning to `OC(CC1c2nc(Cl)ccc2-c2cncn21)C1CCCCC1` (single isomer, unassigned) [Compound 55b, 2-[10-chloro-4,6,9-triazatricyclo[6.4.0.0^[2,6]]dodeca-1(8),2,4,9,11-pentaen-7-yl]-1-cyclohexylethan-1-ol], the IC50 was > 1000 nM.

Turning to `OC(CC1c2nc(Cl)ccc2-c2cncn21)C1CCCCC1` (single isomer, unassigned) [Compound 55c, 2-[10-chloro-4,6,9-triazatricyclo[6.4.0.0^[2,6]]dodeca-1(8),2,4,9,11-pentaen-7-yl]-1-cyclohexylethan-1-ol], the IC50 is > 1000 nM.

As for `OC(CC1c2nc(Cl)ccc2-c2cncn21)C1CCCCC1` (single isomer, unassigned) [Compound 55d, 2-[10-chloro-4,6,9-triazatricyclo[6.4.0.0^[2,6]]dodeca-1(8),2,4,9,11-pentaen-7-yl]-1-cyclohexylethan-1-ol], the IC50 lay in the range of 100 to 1000 nM.

In the case of `OC(CC1c2nc(C3CC3)ccc2-c2cncn21)C1CCCCC1` (single isomer, unassigned) [Compound 56b, 1-cyclohexyl-2-[10-cyclopropyl-4,6,9-triazatricyclo[6.4.0.0^[2,6]]dodeca-1(8),2,4,9,11-pentaen-7-yl]ethan-1-ol], the IC50 was < 100 nM.

On to `OC(CC1c2nc(C3CC3)ccc2-c2cncn21)C1CCCCC1` (single isomer, unassigned) [Compound 56c, 1-cyclohexyl-2-[10-cyclopropyl-4,6,9-triazatricyclo[6.4.0.0^[2,6]]dodeca-1(8),2,4,9,11-pentaen-7-yl]ethan-1-ol], for which the IC50 is > 1000 nM.

Regarding `OC(CC1c2nc(C3CC3)ccc2-c2cncn21)C1CCC(F)(F)CC1` (single isomer, unassigned) [Compound 57b, 2-[10-cyclopropyl-4,6,9-triazatricyclo[6.4.0.0^[2,6]]dodeca-1(8),2,4,9,11-pentaen-7-yl]-1-(4,4-difluorocyclohexyl)ethan-1-ol], the IC50 was in the range of 100 to 1000 nM.

As for `OC(CC1c2nc(C3CC3)ccc2-c2cncn21)C1CCC(F)(F)CC1` (single isomer, unassigned) [Compound 57c, 2-[10-cyclopropyl-4,6,9-triazatricyclo[6.4.0.0^[2,6]]dodeca-1(8),2,4,9,11-pentaen-7-yl]-1-(4,4-difluorocyclohexyl)ethan-1-ol], the 50% inhibitory concentration (IC50) fell in the range of 100 to 1000 nM.

`OC1CCC(F)(CCC2c3cc(F)ncc3-c3cncn32)CC1` (single isomer, unassigned) [Compound 58a, 4-fluoro-4-[2-[10-fluoro-4,6,11-triazatricyclo[6.4.0.0^[2,6]]dodeca-1(8),2,4,9,11-pentaen-7-yl]ethyl]cyclohexan-1-ol]: the IC50 was > 1000 nM.

Consider `OC1CCC(F)(CCC2c3cc(F)ncc3-c3cncn32)CC1` (single isomer, unassigned) [Compound 58c, 4-fluoro-4-[2-[10-fluoro-4,6,11-triazatricyclo[6.4.0.0^[2,6]]dodeca-1(8),2,4,9,11-pentaen-7-yl]ethyl]cyclohexan-1-ol], for which the IC50 was > 1000 nM.

As to `OC1CCC(F)(CCC2c3cc(F)ncc3-c3cncn32)CC1` (single isomer, unassigned) [Compound 58d, 4-fluoro-4-[2-[10-fluoro-4,6,11-triazatricyclo[6.4.0.0^[2,6]]dodeca-1(8),2,4,9,11-pentaen-7-yl]ethyl]cyclohexan-1-ol], the 50% inhibitory concentration (IC50) is > 1000 nM.

As to `OCC1CCC(F)(CCC2c3ccccc3-c3cncn32)CC1` (single isomer, unassigned) [Compound 59a, [4-fluoro-4-[2-[5H-imidazo[4,3-a]isoindol-5-yl]ethyl]cyclohexyl]methanol], the IC50 was > 1000 nM.

As for `OCC1CCC(F)(CCC2c3ccccc3-c3cncn32)CC1` (single isomer, unassigned) [Compound 59b, [4-fluoro-4-[2-[5H-imidazo[4,3-a]isoindol-5-yl]ethyl]cyclohexyl]methanol], the IC50 was < 100 nM.

With `OCC1CCC(F)(CCC2c3ccccc3-c3cncn32)CC1` (single isomer, unassigned) [Compound 59c, [4-fluoro-4-[2-[5H-imidazo[4,3-a]isoindol-5-yl]ethyl]cyclohexyl]methanol], the IC50 was < 100 nM.

Regarding `OCC1CCC(F)(CCC2c3ccccc3-c3cncn32)CC1` (single isomer, unassigned) [Compound 59d, [4-fluoro-4-[2-[5H-imidazo[4,3-a]isoindol-5-yl]ethyl]cyclohexyl]methanol], the half-maximal inhibitory concentration (IC50) is > 1000 nM.

Regarding `OC1(C2CCC(F)(CCC3c4ccccc4-c4cncn43)CC2)CC1` (single isomer, unassigned) [Compound 60a, 1-[4-fluoro-4-[2-[5H-imidazo[4,3-a]isoindol-5-yl]ethyl]cyclohexyl]cyclopropan-1-ol], the IC50 is < 100 nM.

Take `OC1(C2CCC(F)(CCC3c4ccccc4-c4cncn43)CC2)CC1` (single isomer, unassigned) [Compound 60b, 1-[4-fluoro-4-[2-[5H-imidazo[4,3-a]isoindol-5-yl]ethyl]cyclohexyl]cyclopropan-1-ol]: the IC50 was > 1000 nM.

With `OC1(C2CCC(F)(CCC3c4ccccc4-c4cncn43)CC2)CC1` (single isomer, unassigned) [Compound 60c, 1-[4-fluoro-4-[2-[5H-imidazo[4,3-a]isoindol-5-yl]ethyl]cyclohexyl]cyclopropan-1-ol], the IC50 is > 1000 nM.

In the case of `OC1(C2CCC(F)(CCC3c4ccccc4-c4cncn43)CC2)CC1` (single isomer, unassigned) [Compound 60d, 1-[4-fluoro-4-[2-[5H-imidazo[4,3-a]isoindol-5-yl]ethyl]cyclohexyl]cyclopropan-1-ol], the IC50 was < 100 nM.

Turning to `CC(C)(O)C1CCC(F)(CCC2c3ccccc3-c3cncn32)CC1` (single isomer, unassigned) [Compound 61a, 2-[4-fluoro-4-[2-[5H-imidazo[4,3-a]isoindol-5-yl]ethyl]cyclohexyl]propan-2-ol], the IC50 was > 1000 nM.

Turning to `CC(C)(O)C1CCC(F)(CCC2c3ccccc3-c3cncn32)CC1` (single isomer, unassigned) [Compound 61b, 2-[4-fluoro-4-[2-[5H-imidazo[4,3-a]isoindol-5-yl]ethyl]cyclohexyl]propan-2-ol], the IC50 is > 1000 nM.
